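Each compound was tested at five concentrations against cells in 96-well plates for 48 hours. GI50 is the concentration that inhibits growth by half.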 Activity calls are given as the source filed them. No stated cut-off is given here; in the data, active = GI50 up to about 1.1 µM and inactive = higher.

Among the test systems are A549; BT-549; HCT-116; HL-60; HT-29; IGROV-1; MDA-N; NCI-H226; NCI-H23; NCI-H522; NCI/ADR-RES; OVCAR-5; OVCAR-8; RPMI-8226; SF-295; SF-539; TK-10; UACC-257; SR.
Common to all, as to experiment: NCI-60 cell line screen, 48 h

`CCCCCCCCCCCCCCCCOP(=O)(O)OP(=O)(O)OCC1OC(n2ccc(N)nc2=O)CC1O` (stereo not drawn): the GI50 with A549, in the assay on BT-549, in the assay with HCT-116, in the assay on HL-60, in the assay on HT-29 and in the assay with IGROV-1 was > 100 µM (inactive) each time. Further, the GI50 in the assay with MDA-N, in the assay on NCI-H226, in the assay on NCI-H23, in the assay on NCI-H522, in the assay with NCI/ADR-RES and with OVCAR-5 was > 100 µM (inactive) in each case. Also, the GI50 in the assay with OVCAR-8, with RPMI-8226, with SF-295, in the assay with SF-539, in the assay with TK-10 and in the assay with UACC-257 was > 100 µM (inactive) throughout.

On to `COc1ccc(/C=N/n2c(C)n[nH]c2=O)c(OC)c1`, for which the GI50 in the assay with A549, in the assay with BT-549, in the assay with HCT-116, with HT-29, in the assay on MDA-N and with NCI-H226 was > 100 µM (inactive) in each case. Also, the GI50 in the assay with NCI-H23, in the assay on NCI/ADR-RES, in the assay with OVCAR-5, with OVCAR-8, with RPMI-8226 and with SF-295 was > 100 µM (inactive) each time. The GI50 in the assay with SF-539 and with UACC-257 was > 100 µM (inactive) in each case.

On to `O=c1cc(N2CCOCC2)[nH]c(=O)n1-c1cccc(Cl)c1`, for which the GI50 in the assay with BT-549, in the assay on HCT-116, in the assay with HL-60, in the assay on HT-29, in the assay with IGROV-1 and in the assay with MDA-N was > 100 µM (inactive) throughout. For the same molecule, the GI50 in the assay on NCI-H226, with NCI-H23, in the assay with NCI-H522, in the assay on NCI/ADR-RES, in the assay with OVCAR-5 and with OVCAR-8 was > 100 µM (inactive) throughout. Further, the GI50 in the assay on RPMI-8226, in the assay on SF-295, in the assay with SF-539, in the assay on TK-10 and in the assay with UACC-257 was > 100 µM (inactive) in each case.

For the molecule `CN(Cc1cnc2nc(N)nc(N)c2n1)c1ccc(C(=O)N[C@@H](CCS(=O)(=O)O)C(=O)O)cc1`, the GI50 in the assay on A549 was 0.182 µM (active); with BT-549 it was 0.404 µM (active); in the assay with HCT-116, 0.0352 µM (active); in the assay with IGROV-1, 0.431 µM (active); in the assay on MDA-N, 0.057 µM (active); in the assay on NCI-H226 it was 51.5 µM (inactive). Moreover, the GI50 was 0.458 µM (active) with NCI-H23; 0.574 µM (active) in the assay on NCI-H522; 1.18 µM (inactive) in the assay with NCI/ADR-RES; 21.8 µM (inactive) with OVCAR-8; 0.0766 µM (active) in the assay with SF-295; 0.614 µM (active) with SF-539. Further, the figures for the GI50 with SR and in the assay with UACC-257 were 0.0755 µM (active) and > 100 µM (inactive), respectively.

As for `Cc1cc(OP2(=O)NCc3ccncc3O2)ccc1Cl` (stereo not drawn), the GI50 in the assay on A549, in the assay on BT-549, in the assay with HCT-116, in the assay with HT-29, with IGROV-1 and in the assay on MDA-N was > 100 µM (inactive) each time. Besides, the GI50 with NCI-H226, in the assay with NCI-H23, with NCI/ADR-RES, in the assay with OVCAR-5, with OVCAR-8 and with RPMI-8226 was > 100 µM (inactive) throughout. Further, the GI50 in the assay with SF-295, in the assay on SF-539, in the assay on SR and in the assay on UACC-257 was > 100 µM (inactive) each time.

Take `CCOC(=O)C(NC(=O)NCc1ccc(F)cc1)C(F)(F)F` (stereo not drawn): the GI50 with A549, with BT-549, in the assay with HCT-116, with HL-60, with HT-29 and in the assay with IGROV-1 was > 100 µM (inactive) in each case. In addition, the GI50 in the assay on MDA-N, in the assay on NCI-H23, with NCI/ADR-RES, in the assay with OVCAR-5, in the assay on OVCAR-8 and in the assay on RPMI-8226 was > 100 µM (inactive) in each case. The GI50 with SF-539, in the assay on SR, with TK-10 and in the assay with UACC-257 was > 100 µM (inactive) each time.

Turning to `C/C(CC/C(C)=N/O)=N\O`, the GI50 in the assay with A549, in the assay with BT-549, in the assay on HCT-116, in the assay on HL-60, in the assay on HT-29 and with IGROV-1 was > 100 µM (inactive) throughout. The GI50 with MDA-N, with NCI-H226, with NCI-H23, in the assay with NCI-H522, in the assay with NCI/ADR-RES and in the assay with OVCAR-5 was > 100 µM (inactive) throughout. In addition, the GI50 in the assay with OVCAR-8, with RPMI-8226, in the assay with SF-295, in the assay with SF-539, with TK-10 and in the assay with UACC-257 was > 100 µM (inactive) each time.

Consider `COc1cc2c(cc1O)c(O)cc1c3cc(OC)c(OC)cc3c[n+](C)c21`, for which the GI50 with A549 was 44 µM (inactive); with BT-549, 23 µM (inactive); in the assay with HCT-116, 23.1 µM (inactive); in the assay with HT-29, 15.2 µM (inactive); with MDA-N it was 17.7 µM (inactive); with NCI-H226 it was 9.62 µM (inactive). Further, the GI50 in the assay on NCI-H23 is 4.69 µM (inactive); in the assay with NCI-H522, 0.0225 µM (active); in the assay with NCI/ADR-RES, > 85.9 µM (inactive); in the assay on OVCAR-5 it was > 100 µM (inactive); in the assay with OVCAR-8, 8.87 µM (inactive); in the assay with RPMI-8226, > 32.8 µM (inactive). Moreover, the GI50 with SF-295 is 18.7 µM (inactive); in the assay on SF-539 it was 3.65 µM (inactive); in the assay on TK-10 it was > 100 µM (inactive); in the assay with UACC-257 it was 51.8 µM (inactive).

As for `CNc1nc(C(N)=O)c(N)s1`, the GI50 in the assay on A549, in the assay with BT-549, in the assay with HCT-116, in the assay with HL-60, with HT-29 and with IGROV-1 was > 100 µM (inactive) each time. The GI50 in the assay on MDA-N, in the assay with NCI-H226, in the assay on NCI-H23, in the assay on NCI-H522, with NCI/ADR-RES and in the assay with OVCAR-5 was > 100 µM (inactive) each time. For the same molecule, the GI50 in the assay on OVCAR-8, in the assay with RPMI-8226, in the assay with SF-295, in the assay with SF-539, in the assay on TK-10 and with UACC-257 was > 100 µM (inactive) each time.

`O=C(Nc1ccc2[nH]c(C(=O)N3CC(CCl)c4ccc([N+](=O)[O-])cc43)cc2c1)c1cc2ccccc2o1` (stereo not drawn): the GI50 with A549 was 556 µM (inactive); in the assay with BT-549, > 1100 µM (inactive); in the assay on HCT-116, > 1100 µM (inactive); in the assay on HL-60, > 1100 µM (inactive); with HT-29, > 1100 µM (inactive); in the assay on IGROV-1 it was > 1100 µM (inactive). Besides, the GI50 is > 1100 µM (inactive) in the assay with MDA-N; > 1100 µM (inactive) with NCI-H226; > 1100 µM (inactive) in the assay on NCI-H23; 258 µM (inactive) with NCI-H522; > 1100 µM (inactive) in the assay with NCI/ADR-RES; 893 µM (inactive) with OVCAR-5. The GI50 in the assay on OVCAR-8 was > 1100 µM (inactive); in the assay on RPMI-8226 it was > 1100 µM (inactive); in the assay with SF-295 it was 716 µM (inactive); in the assay on SF-539, > 1100 µM (inactive); in the assay with UACC-257 it was > 1100 µM (inactive).

Consider `Cc1ccc2nc3c(=O)[nH]c(=O)nc-3n(C)c2c1C`, for which the GI50 in the assay on A549, in the assay with BT-549, in the assay on HCT-116, in the assay with HL-60, with HT-29 and in the assay with IGROV-1 was > 100 µM (inactive) in each case. In addition, the GI50 with MDA-N, in the assay with NCI-H226, in the assay on NCI-H23, in the assay with NCI-H522, with NCI/ADR-RES and in the assay with OVCAR-5 was > 100 µM (inactive) throughout. Further, the GI50 in the assay with OVCAR-8, in the assay with RPMI-8226, in the assay with SF-295, in the assay on SF-539, with TK-10 and in the assay with UACC-257 was > 100 µM (inactive) each time.

As for `S=C(/N=c1\sc(Nc2ccc(Cl)cc2)nc2sc3c(c12)CCN(N1CCc2c(sc4nc(Nc5ccc(Cl)cc5)s/c(=N\C(=S)Nc5ccc(Cl)cc5)c24)C1)C3)Nc1ccc(Cl)cc1`, the GI50 with A549 was 55.2 µM (inactive); in the assay on BT-549, > 100 µM (inactive); in the assay on HCT-116, 17.9 µM (inactive); in the assay with HT-29, 19 µM (inactive); in the assay with IGROV-1 it was 35.7 µM (inactive); with MDA-N it was 17 µM (inactive). Besides, the GI50 is 78.2 µM (inactive) in the assay on NCI-H226; 53.7 µM (inactive) in the assay with NCI-H23; 96.2 µM (inactive) with NCI-H522; 48 µM (inactive) in the assay on NCI/ADR-RES; 26.7 µM (inactive) in the assay with OVCAR-5; 43.1 µM (inactive) in the assay on OVCAR-8. Moreover, the GI50 with SF-295 was 38.7 µM (inactive); in the assay with SF-539, 17.9 µM (inactive); in the assay with TK-10, 44.6 µM (inactive); in the assay on UACC-257 it was 43.5 µM (inactive).

(Values after ChEMBL document CHEMBL1201862, “PubChem BioAssay data set” (2004).)
